Measured values reported in PubChem BioAssay AID1963833 (Molecular Pharmacology Branch, DTP, NCI, 2024).

Test system: 883617-216-R-J1-PDC complex spheroid viability
Experiment: Anticancer human tumor 883617-216-R-J1-PDC patient-derived bladder carcinoma cell line growth inhibition [POLQ]
Details: for IC50: curve of first compound; for viability, T/C: stronger effect = lower value
Experimental: Multicellular complex tumor spheroid response to Polymerase (POL) inhibitors (novobiocin, ART-558, RP6685) in combination with a variety of drugs and investigational agents in selected tumor cell lines
The POL inhibitors (novobiocin, ART-558, and RP6685) were evaluated both individually and in combination with standard of care and investigational anticancer small molecules within a complex spheroid model of solid tumors. . Complex spheroids include a stromal component modeled by human endothelial cells (HUVEC) and fibroblasts modeled by human mesenchymal stem cells (MSCs). The concentration ranges selected for each drug and investigational agent were based upon clinically achievable concentrations if the clinical Cmax of the agent was known.
Compounds. The drugs and investigational agents: novobiocin (NSC847541), ART-558 (NSC835418), RP-6685 (NSC848927), peposertib (NSC802822), ceralasertib (NSC780249), elimusertib (NSC800525), camonsertib (NSC841442), AZD-1390 (NSC803789), olaparib (NSC753686), talazoparib (NSC767125), rucaparib (NSC756644), sotorasib (NSC818433), MRTX-1133 (NSC836407), SN-38 (NSC673596), topotecan (NSC609699), epotoside (NSC141540), doxorubicin (NSC123127), gemcitabine (NSC613327), 5-fluorouracil (NSC19893), paclitaxel (NSC125973), vemurafenib (NSC761431), MSA-2 (NSC828583), SN-011 (NSC837082), adavosertib (NSC754352), prexasertib (NSC758257), carboplatin (NSC241240) and oxaliplatin (NSC266046), were obtained from the National Cancer Institute (NCI) Developmental Therapeutics Program Chemical Repository (21). The FDA-approved anticancer drug set is available from the Developmental Therapeutics Program at https://dtp.cancer.gov/organization/dscb/obtaining/. […] The stock solutions were prepared in dimethyl sulfoxide (DMSO, Sigma-Aldrich, St. Louis, MO, cat. D2650), except for the platinum compounds which were prepared in saline (Quality Biological, Gaithersburg, MD, cat. 114-055-101), at 800-fold the tested concentration and stored at -70 degrees C prior to their use. All drugs and investigational agents were tested over a range starting from a high concentration at or near the clinical Cmax and decreasing in half-log increments. If the clinical Cmax for an agent had not been determined, the highest concentration tested was 10 microM, except for SN-38, which was tested at a high concentration of 1 microM.
Cell Culture. All cells were maintained in an incubator at 37 degrees C and 5% CO2 with 95% humidity. The PDC lines were cultured according to standard operating procedures established by the NCI PDMR (https://pdmr.cancer.gov). Table 3 of the manuscript, lists the cell lines along with the number of the three cell types plated to form the mct-spheroids and media for tumor cell growth. After thawing, all PDC lines, except 997537-175-T-J1-PDC and 415267-285-R-J2-PDC, were cultured in Matrigel-coated flasks prepared with a working solution of 1X Ham's F-12 nutrient mix, without supplementation (Thermo Fisher Scientific, cat. 11765054), 100 U/mL penicillin-streptomycin (Thermo Fisher Scientific, cat. 15140122), and 2.5% Matrigel (Corning Inc., Corning, NY, cat. 354248) for the first three passages. The two PDC lines 997537-175-T-J1-PDC and 415267-285-R-J2-PDC were cultured on uncoated flasks. The 857933-349-R-J2-PDC line was cultured in 6C/Colon 1B media containing advanced DMEM/F-12 (Thermo Fisher Scientific, cat. 12634028), 10 mM HEPES (Thermo Fisher Scientific, cat. 15630080), 1X GlutaMAX supplement (Thermo Fisher Scientific, cat. 35050061), 0.1 mg/mL primocin (InvivoGen, San Diego, CA, cat. ant-pm-2), 10% defined fetal bovine serum, heat inactivated (HyClone Laboratories Inc., Logan, UT, cat. SH30070.03HI), 50% L-WRN conditioned media (ATCC, cat. CRL-3276), 1.25 mM N-Acetyl-L-cysteine (Sigma-Aldrich, cat. A9165), 10 mM nicotinamide (Sigma-Aldrich, cat. N0636), 1X B-27 supplement (Thermo Fisher Scientific, cat. 17504044), 1X N-2 supplement (Thermo Fisher Scientific, cat. […]

[1] = second compound 0.0316 µM, first compound 0.00316 µM
[2] = second compound 0.0316 µM, first compound 0.01 µM
[3] = second compound 0.0316 µM, first compound 0.0316 µM
[4] = second compound 0.0316 µM, first compound 0.1 µM
[5] = second compound 0.1 µM, first compound 0.00316 µM
[6] = second compound 0.1 µM, first compound 0.01 µM
[7] = second compound 0.1 µM, first compound 0.0316 µM
[8] = second compound 0.1 µM, first compound 0.1 µM
[9] = second compound 0.316 µM, first compound 0.00316 µM
[10] = second compound 0.316 µM, first compound 0.01 µM
[11] = second compound 0.316 µM, first compound 0.0316 µM
[12] = second compound 0.316 µM, first compound 0.1 µM
[13] = second compound 1 µM, first compound 0.00316 µM
[14] = second compound 1 µM, first compound 0.01 µM
[15] = second compound 1 µM, first compound 0.0316 µM
[16] = second compound 1 µM, first compound 0.1 µM
[17] = second compound 3.16 µM, first compound 0.00316 µM
[18] = second compound 3.16 µM, first compound 0.01 µM
[19] = second compound 3.16 µM, first compound 0.0316 µM
[20] = second compound 3.16 µM, first compound 0.1 µM
[21] = second compound 10 µM, first compound 0.00316 µM
[22] = second compound 10 µM, first compound 0.01 µM
[23] = second compound 10 µM, first compound 0.0316 µM
[24] = second compound 10 µM, first compound 0.1 µM
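Further: spheroids exposed to compounds for seven days before readout.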
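Wherever viability, T/C is given: 100% = DMSO vehicle control viability.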

CC[C@@]1(O)C(=O)OCc2c1cc1n(c2=O)Cc2cc3c(CN(C)C)c(O)ccc3nc2-1 + COC1C(OC(N)=O)C(O)C(Oc2ccc3c(O)c(NC(=O)c4ccc(O)c(CC=C(C)C)c4)c(=O)oc3c2C)OC1(C)C
IC50 (second compound 0.0316 µM): > 100 nM | IC50 (second compound 0.1 µM): > 100 nM | IC50 (second compound 0.316 µM): > 100 nM | IC50 (second compound 1 µM): > 100 nM | IC50 (second compound 3.16 µM): > 100 nM | IC50 (second compound 10 µM): > 100 nM | viability, T/C (second compound 0.0316 µM, first compound 0.000316 µM): 110% | viability, T/C (second compound 0.0316 µM, first compound 0.001 µM): 98.5% | viability, T/C [1]: 94.7% | viability, T/C [2]: 89.1% | viability, T/C [3]: 67.4% | viability, T/C [4]: 65.2% | viability, T/C (second compound 0.1 µM, first compound 0.000316 µM): 108% | viability, T/C (second compound 0.1 µM, first compound 0.001 µM): 110% | viability, T/C [5]: 91.7% | viability, T/C [6]: 85.8% | viability, T/C [7]: 55.2% | viability, T/C [8]: 60.6% | viability, T/C (second compound 0.316 µM, first compound 0.000316 µM): 95.9% | viability, T/C (second compound 0.316 µM, first compound 0.001 µM): 101% | viability, T/C [9]: 87.1% | viability, T/C [10]: 81.6% | viability, T/C [11]: 58% | viability, T/C [12]: 65% | viability, T/C (second compound 1 µM, first compound 0.000316 µM): 94.9% | viability, T/C (second compound 1 µM, first compound 0.001 µM): 96.8% | viability, T/C [13]: 89.7% | viability, T/C [14]: 82.3% | viability, T/C [15]: 57.3% | viability, T/C [16]: 61.7% | viability, T/C (second compound 3.16 µM, first compound 0.000316 µM): 107% | viability, T/C (second compound 3.16 µM, first compound 0.001 µM): 89.6% | viability, T/C [17]: 93.4% | viability, T/C [18]: 78% | viability, T/C [19]: 65.2% | viability, T/C [20]: 57.1% | viability, T/C (second compound 10 µM, first compound 0.000316 µM): 104% | viability, T/C (second compound 10 µM, first compound 0.001 µM): 90.9% | viability, T/C [21]: 95.3% | viability, T/C [22]: 88% | viability, T/C [23]: 65.6% | viability, T/C [24]: 64.9%

CCc1c2c(nc3ccc(O)cc13)-c1cc3c(c(=O)n1C2)COC(=O)[C@]3(O)CC + COC1C(OC(N)=O)C(O)C(Oc2ccc3c(O)c(NC(=O)c4ccc(O)c(CC=C(C)C)c4)c(=O)oc3c2C)OC1(C)C
IC50 (second compound 0.0316 µM): 98 nM | IC50 (second compound 0.1 µM): 104 nM | IC50 (second compound 0.316 µM): 60.2 nM | IC50 (second compound 1 µM): 78.4 nM | IC50 (second compound 3.16 µM): 108 nM | IC50 (second compound 10 µM): 99.5 nM | viability, T/C [1]: 63.7% | viability, T/C [2]: 57.6% | viability, T/C [3]: 67.5% | viability, T/C [4]: 47.6% | viability, T/C (second compound 0.0316 µM, first compound 0.316 µM): 33.5% | viability, T/C (second compound 0.0316 µM, first compound 1 µM): 25.2% | viability, T/C [5]: 58.6% | viability, T/C [6]: 59.3% | viability, T/C [7]: 59.9% | viability, T/C [8]: 49.7% | viability, T/C (second compound 0.1 µM, first compound 0.316 µM): 33.6% | viability, T/C (second compound 0.1 µM, first compound 1 µM): 20.7% | viability, T/C [9]: 70.1% | viability, T/C [10]: 62.3% | viability, T/C [11]: 55.1% | viability, T/C [12]: 49.1% | viability, T/C (second compound 0.316 µM, first compound 0.316 µM): 31.6% | viability, T/C (second compound 0.316 µM, first compound 1 µM): 29.7% | viability, T/C [13]: 68.7% | viability, T/C [14]: 59.2% | viability, T/C [15]: 61.4% | viability, T/C [16]: 46.9% | viability, T/C (second compound 1 µM, first compound 0.316 µM): 33.6% | viability, T/C (second compound 1 µM, first compound 1 µM): 21.1% | viability, T/C [17]: 66.8% | viability, T/C [18]: 58% | viability, T/C [19]: 60.2% | viability, T/C [20]: 51.8% | viability, T/C (second compound 3.16 µM, first compound 0.316 µM): 35% | viability, T/C (second compound 3.16 µM, first compound 1 µM): 21.1% | viability, T/C [21]: 71% | viability, T/C [22]: 56% | viability, T/C [23]: 63.3% | viability, T/C [24]: 46.2% | viability, T/C (second compound 10 µM, first compound 0.316 µM): 42% | viability, T/C (second compound 10 µM, first compound 1 µM): 21.7%
